How the values were obtained:
Format in all cases: cell-based, HSV-1 (KOS strain)
HSV-1 [1] = test: HSV-1 cytopathic effect in infected hTCEpi cells (phase contrast); conditions: MOI 0.1, inhibitor 10 μM, 20 hpi
Procedure: (§1) All cells were cultured at 37° C. and 5% CO2 and supplemented with 100 U/mL penicillin and […]. Human corneal epithelial cells immortalized with hTERT (hTCEpi; Robertson, et al., 2005, Invest Ophthalmol Vis Sci. 46:470-478) were grown in complete keratinocyte growth medium 2 (KGM-2; Lonza, Basel, Switzerland). African green monkey kidney fibroblasts (CV-1; American Type Culture Collection, Manassas, Va.) were grown in Dulbecco's modified Eagle's medium (DMEM; Cellgro, Manassas, Va.) supplemented with 10% FBS. The KOS strain of HSV-1 was used in the in vitro and ex vivo infections, whereas McKrae strain was used for in vivo mouse experiments, and TK mutant dlsptk strain (Coen et al., 1989, Proc Natl Acad Sci USA 86:4736-4740) was used in the drug resistance experiments. All viral stocks were titered on CV-1 monolayers.
(§2) The following strains of HSV-1 were used: KOS, ICPO-null, HFEM, and tsB7. Subconfluent monolayers of cells were grown in six-well plates. Drug treatments were administered 45 minutes prior to infection and continued for the entire duration of each experiment. Unless indicated otherwise, KU-55933 (Batch No. 5, 99.7% purity; Tocris Bioscience, Bristol, UK) was used at 10 μM final concentration, phosphonoacetic acid (PAA) at 400 μg/mL (Sigma-Aldrich, St. Louis, Mo.), and acyclovir at 50 μg/mL (Sigma-Aldrich). […]

HSV-1 [2] = test: Plaque assay of supernatants from HSV-1 infected hTCEpi cells
Procedure: as §1, §2

HSV-1 [3] = test: qPCR of viral genome replication in HSV-1 infected hTCEpi cells; conditions: for viral genome replication (qPCR): MOI 0.1, inhibitor 10 μM
Procedure: The following strains of HSV-1 were used: KOS, ICPO-null, HFEM, and tsB7. Subconfluent monolayers of cells were grown in six-well plates. Drug treatments were administered 45 minutes prior to infection and continued for the entire duration of each experiment. Unless indicated otherwise, KU-55933 (Batch No. 5, 99.7% purity; Tocris Bioscience, Bristol, UK) was used at 10 μM final concentration, phosphonoacetic acid (PAA) at 400 μg/mL (Sigma-Aldrich, St. Louis, Mo.), and acyclovir at 50 μg/mL (Sigma-Aldrich). KU-55933 was dissolved in dimethyl sulfoxide (DMSO), and the final concentration of DMSO in both KU-55933 and mock treatment in the in vitro and the ex vivo experiments was 0.1%.
Infections with KOS strain of HSV-1 were carried out in six-well plates in a 200 μL inoculum volume at 37° C. for 1 hour with intermittent rocking. The cells were then rinsed and overlaid with fresh medium.
Cells were grown in 6-well plates and used in experiments at −80% confluence. Drug treatments were administered 45 min prior to infection and continued for the entire duration of each experiment. Unless indicated otherwise, Chk2 inhibitor II (>98% purity by HPLC) was used at 10 μM final concentration, and phosphonoacetic acid (PAA) at 400 μg/ml (both from Sigma-Aldrich, St. Louis, Mo.). Chk2 inhibitor II was dissolved in DMSO such that the final concentration of DMSO in both Chk2 inhibitor II and mock treatment was 0.1%. Infections with KOS strain of HSV-1 were carried out in 6-well plates in a 200 μl inoculum volume at 37° C. for 1 hour with intermittent rocking. The cells were then thoroughly rinsed and overlaid with fresh medium.
Total DNA from infected cells and corneas was isolated using the DNeasy Blood & Tissue Kit (QIAGEN, Hilden, Germany). Real time quantitative PCR was performed with SYBR Green (Bio-Rad, Hercules, Calif.). Target primers for UL30 (DNA polymerase catalytic subunit) and reference primers for GAPDH were used to measure viral genome abundance. Primer sequences were based on the KOS genome (accession #JQ673480.1).

HSV-1 [4] = test: Ex vivo HSV-1 infection of explanted human corneas, qPCR of viral genome; conditions: 48 hpi; for viral genome replication in corneal epithelium (qPCR): 1×10^4 PFU/cornea
Procedure: (§3) Human corneas were obtained from the Lions Eye Bank of Delaware Valley. Rabbit corneas were excised from intact fresh eyeballs of young (8-12 weeks) albino rabbits (Pel-Freez Biologicals, Rogers, Ark.). Protocol (Alekseev et al., 2012, J Vis Exp 69:e3631) for ex vivo corneal culture, infection, and treatment was followed closely. Briefly, corneoscleral buttons were excised and rinsed in PBS containing 200 U/mL penicillin and 200 μg/mL streptomycin. The endothelial concavity was filled with culture medium containing 1% low melting temperature agarose. The corneas were cultured epithelial side up in MEM medium supplemented with nonessential amino acids (1×), 2 mM […], 200 U/mL penicillin, and 200 μg/mL streptomycin. The next day, they were infected with 1×10^4 plaque forming units (PFU)/cornea of strain KOS HSV-1 for 1 hour, rinsed, and overlaid with fresh medium. Drug treatments were administered at the same concentrations as for cultured cells. For KU-55933 bioavailability assessment, corneas were treated with bleomycin (200 μg/mL) for 1 hour. The epithelial cell layer was collected by scraping to isolate DNA or protein. For immunohistochemistry studies, corneas were flash frozen in optimal cutting temperature (OCT) compound, sectioned, and immunostained using standard protocols. Treatment toxicity was assessed by briefly staining the cornea with fluorescein (1% wt/vol in PBS) and imaging the epithelial defects with 464-nm wavelength blue light (LDP LLC, Carlstadt, N.J.).
(§4) Viral genome replication and transcription were measured by quantitative PCR (qPCR). Total DNA and RNA from infected cells were isolated using the DNeasy Blood & Tissue Kit and the RNeasy Mini Kit, respectively (QIAGEN, Hilden, Germany). RNA was converted to cDNA using qScript (Quanta BioSciences, Gaithersburg, Md.). Real-time qPCR was performed with SYBR Green (Bio-Rad, Hercules, Calif.). Target primers for UL30 (DNA polymerase catalytic subunit) and reference primers for glyceraldehyde 3-phosphate dehydrogenase (GAPDH) were used to measure genome replication. Transcription of the three gene families was measured with primers for RL2 (ICPO), UL30 (DNA polymerase catalytic subunit), and UL44 (gC), with reference primers for the 18S ribosomal RNA (rRNA).
Human corneas were obtained from the Lions Eye Bank of Delaware Valley. Rabbit corneas were excised from intact fresh eyeballs of young (8-12 weeks) albino rabbits (Pel-Freez Biologicals, Rogers, Ark.). […]
(§5) Total DNA from infected cells and corneas was isolated using the DNeasy Blood & Tissue Kit (QIAGEN, Hilden, Germany). Real time quantitative PCR was performed with SYBR Green (Bio-Rad, Hercules, Calif.). […]

HSV-1 [5] = test: Ex vivo HSV-1 infection of explanted rabbit corneas, qPCR of viral genome; conditions: for viral genome replication in corneal epithelium (qPCR): 1×10^4 PFU/cornea, 10 μM
Procedure: as §3, §4
Human corneas were obtained from the Lions Eye Bank of Delaware Valley. Rabbit corneas were excised from intact fresh eyeballs of young (8-12 weeks) albino rabbits (Pel-Freez Biologicals, Rogers, Ark.). The protocol (Alekseev et al., 2012, J. Vis. Exp. e3631) for ex vivo corneal culture and infection was followed, and treatment was administered immediately after infection. Briefly, corneoscleral buttons were excised and rinsed in PBS containing 200 U/ml penicillin and 200 μg/ml streptomycin. The endothelial concavity was filled with culture medium containing 1% low melting temperature agarose. The corneas were cultured epithelial side up in MEM medium supplemented with non-essential amino acids (1×), 2 mM […], 200 U/ml penicillin, and 200 μg/ml streptomycin. The next day, they were infected with 1×10^4 PFU/cornea of strain KOS HSV-1 for 1 hour, rinsed, and overlaid with fresh medium. Drug treatments were administered at the same concentrations as for cultured cells. […]
as §5

O=c1cc(-c2cccc3c2Sc2ccccc2S3)oc(N2CCOCC2)c1 [KU-55933, 2-(morpholin-4-yl)-6-(thianthren-1-yl)-pyran-4-one]
cytopathic effect (CPE) of HSV-1 (HSV-1 [1]): prevented | inhibition of infectious particle production (plaque assay) (HSV-1 [2]; MOI 0.1, KU-55933 10 μM, 20 hpi): greater than 10,000 fold | viral genome replication (qPCR) (HSV-1 [3]; hTCEpi cells): sharp reduction | effect of addition on the dose-response curve of the partner drug (HSV-1 [3]; hTCEpi, MOI 0.1, KU-55933 0-7 μM with acyclovir 0-1.5 μg/mL, 16 hpi): shifted the acyclovir dose-response curve to the left | effect on viral genome replication, human compared with rabbit corneas (HSV-1 [4]; KU-55933 10 μM): more pronounced in human corneas | viral genome replication in corneal epithelium (qPCR) (HSV-1 [4]; human corneas, 10 μM): greatly reduced | viral genome replication in corneal epithelium (qPCR) (HSV-1 [5]; rabbit corneas, 48 hpi): greatly reduced

NC(=O)c1ccc2[nH]c(-c3ccc(Oc4ccc(Cl)cc4)cc3)nc2c1 [Chk2 inhibitor II, 2-(4-(4-chlorophenoxy)phenyl)-1H-benzimidazole-5-carboxamide]
cytopathic effect (CPE) of HSV-1 (HSV-1 [1]): almost completely eliminated | generation of infectious viral particles (plaque assay) (HSV-1 [2]; MOI 0.1, 10 μM, vs controls): reduction | viral genome replication (qPCR) (HSV-1 [3]; hTCEpi cells): profoundly reduced | viral genome levels (qPCR) at high viral load (HSV-1 [3]; hTCEpi cells, MOI 5, 10 μM): reduced yet still substantial decrease | difference in viral genome levels versus positive controls treated with PAA (HSV-1 [4]; human corneas, 10 μM, PAA 400 μg/ml): no statistical significance | viral genome replication in corneal epithelium (qPCR) (HSV-1 [4]; human corneas, 10 μM): did not support productive infection | HSV-1 inhibition in rabbit compared with human corneas (HSV-1 [5]; Chk2 inhibitor II 10 μM, 48 hpi): slightly less potent | HSV-1 growth following the removal of inhibitor (HSV-1 [5]; rabbit corneas, 10 μM for 48 hours, then inhibitor-free medium): resume normal growth | time to which the effect of inhibition was maintained (HSV-1 [5]; rabbit corneas, 10 μM for 48 hours, then inhibitor-free medium for 48 hours, latest time point tested): ≥ 96 hpi | viral genome replication in corneal epithelium (qPCR) (HSV-1 [5]; rabbit corneas, 48 hpi): did not support productive infection

From US20210023089A1, “Compositions Useful for Treating Herpes Simplex Keratitis, and Methods Using Same” (priority 2013, published 2021)
